Source: publication PMC5460289, “Identification of New Shikonin Derivatives as Antitumor Agents Targeting STAT3 SH2 Domain” (Scientific Reports, 2017)

How the values were obtained:
Type in all cases: cell-based, human
[1] = system: PARP and caspase 3 cleavage in MDA-MB-231 cells; assay: Western blot of PARP and caspase 3 cleavage; details: MDA-MB-231, 24 h treatment
Description: To determine whether PMM-172 induced apoptosis, Annexin V/PI double staining assay was conducted. MDA-MB-231 cells were treated with various concentrations of PMM-172 for 24 h, and the percentage of apoptotic cells was markedly elevated in a dose-dependent manner. Likewise, MDA-MB-231 cells were treated with corresponding doses of Stattic. […] The percentages of cell apoptosis 3.12%, 8.12%, 16.81%, 62.74% corresponded to the concentration of PMM-172 0, 2, 4 and 8 μM, respectively, including both the early and the late apoptotic cells. Clearly, PMM-172 can cause cell apoptosis more effectively than Stattic. Moreover, an extend time-course apoptosis analysis of MDA-MB-231 cells treated with 4 μM PMM-172 was carry out. […] To further assess the pro-apoptotic effect of PMM-172, we evaluated the cleavage of poly (ADP-ribose) polymerase (PARP) and caspase 3 in MDA-MB-231 cells after 24 h treatment with PMM-172. […]
Figure 4 The effect of PMM-172 on the cell apoptosis of MDA-MB-231 cells. […] Apoptosis was analyzed by flow cytometry by using Annexin V/PI double staining. […] (E) PARP and caspase 3 cleavage in MDA-MB-231 cells after treated with various concentrations of PMM-172 for 24 h were detected by using Western blot analysis. The relative expression level was analyzed by Image J software. […]

MDA-MB-231 cells = assay: Annexin V/PI double staining apoptosis assay (flow cytometry); details: for percentage of cell apoptosis (early and late apoptotic cells): 24 h, MDA-MB-231, control 3.12%
Description: To determine whether PMM-172 induced apoptosis, Annexin V/PI double staining assay was conducted. MDA-MB-231 cells were treated with various concentrations of PMM-172 for 24 h, and the percentage of apoptotic cells was markedly elevated in a dose-dependent manner. Likewise, MDA-MB-231 cells were treated with corresponding doses of Stattic. […] The percentages of cell apoptosis 3.12%, 8.12%, 16.81%, 62.74% corresponded to the concentration of PMM-172 0, 2, 4 and 8 μM, respectively, including both the early and the late apoptotic cells. Clearly, PMM-172 can cause cell apoptosis more effectively than Stattic. Moreover, an extend time-course apoptosis analysis of MDA-MB-231 cells treated with 4 μM PMM-172 was carry out. […] To further assess the pro-apoptotic effect of PMM-172, we evaluated the cleavage of poly (ADP-ribose) polymerase (PARP) and caspase 3 in MDA-MB-231 cells after 24 h treatment with PMM-172. In this case, the active form of PARP involved in DNA repair and programmed cell death is considered as the hallmark of apoptosis.
Figure 4 The effect of PMM-172 on the cell apoptosis of MDA-MB-231 cells. (A) MDA-MB-231 cells were treated with various concentrations of PMM-172 or Stattic for 24 h, or treated with 4 μM PMM-172 for different time. Apoptosis was analyzed by flow cytometry by using Annexin V/PI double staining. (B) The percentage of apoptotic cells in MDA-MB-231 cells treated with various concentrations of PMM-172 for 24 h. (C) The percentage of apoptotic cells in MDA-MB-231 cells treated with 4 μM PMM-172 for different time. (D) The percentage of apoptotic cells in MDA-MB-231 cells treated with various concentrations of Stattic for 24 h. (E) PARP and caspase 3 cleavage in MDA-MB-231 cells after treated with various concentrations of PMM-172 for 24 h were detected by using Western blot analysis. The relative expression level was analyzed by Image J software. […]
Approximately 10^5 cells/well were plated in a 24 well plate and allowed to adhere. […] The samples were then analyzed by a FACSCalibur flow cytometer (Becton Dickinson, San Jose, CA, USA).

[2] = system: STAT3-TATA-Luc reporter in MDA-MB-231 cells; assay: STAT3 dual-luciferase reporter assay; details: MDA-MB-231, 24 h treatment
Description: Figure 3 MDA-MB-231 cells were transfected with STAT3-TATA-Luc reporter and Renilla luciferase reporter plasmids. After 24 h, cells were treated with indicated concentrations of PMM-172 or Stattic for 24 h and then luciferase intensity was measured. Results are fold change ± SD of three independent experiments, *P < 0.05, **P < 0.01.
Cells were seeded in 24 well plates and transiently transfected together with STAT3 reporter plasmid 4 × M67 pTATA TK-Luc (0.2 μg/per well, Addgene, USA) and Renilla luciferase control reporter plasmid pRL-CMV (0.1 μg/per well, promega, USA), using lipofectamine 2000 (Invitrogen, USA). Then the cells were incubated with complete medium for 24 h with PMM-172 or Stattic. Following the treatment, the cells were harvested in 100 μL of passive lysis buffer (Promega, USA) in each well. A 25 μL aliquot of cell lysate was subjected to a luciferase assay by using the dual-luciferase assay kit (Promega, USA). STAT3 luciferase activity was measured by EnVision Mutilabel Reader (Perkin Elmer, USA). Relative luciferase activity was calculated after the activity of STAT3-dependent firefly luciferase had been normalized to that of Renilla luciferase. All values are expressed as - fold induction relative to basal activity.

STAT5 = assay: Western blot of STAT5 phosphorylation and expression; details: MDA-MB-231
Description: (§1) Figure 6 (A) PMM-172 suppressed constitutive pSTAT3 (Tyr705) in a dose-dependent manner. (B) PMM-172 suppressed constitutive pSTAT3 (Tyr705) in a time-dependent manner. (C) MDA-MB-231 cells were treated with IL-6 (20 ng/mL) or vehicle for 30 min, with or without pretreatment with PMM-172 (2 μM) for 24 h. PMM-172 inhibited IL-6 induced phosphorylation of STAT3. (D) Stattic suppressed constitutive pSTAT3 (Tyr705) in a dose-dependent manner. (E) Stattic suppressed constitutive pSTAT3 (Tyr705) in a time-dependent manner. (F) Tyrosine phosphorylation of two STAT family proteins STAT1 and STAT5 were detected with specific antibodies. […] Data were shown as mean ± SD of three independent experiments. *P < 0.05, **P < 0.01. Cropped blots/gels were used in the figure and the gels had been run under the same experimental conditions; the full-length blots/gels are presented in Supplementary Figure S2.
Subsequently, we evaluated the phosphorylation level of other STAT family proteins including STAT1 and STAT5.
Cells were rinsed twice with cold PBS and then lysed with RIPA buffer containing a protease inhibitor mixture at 1:100 dilution on ice for 30 min. Insoluble components of cell lysates were removed by centrifugation (4 °C, 12000 rmp, 10 min), and protein concentrations were measured using a Pierce BCA protein assay kit. […]

[3] = system: IL-6-induced STAT3 phosphorylation in MDA-MB-231 cells; assay: IL-6 induction of STAT3 phosphorylation (Western blot); details: 2 μM pretreatment 24 h, IL-6 (20 ng/mL) 30 min
Description: as §1
We further investigated whether PMM-172 could inhibit IL-6-induced STAT3 phosphorylation in MDA-MB-231 cells.
Cells were seeded in 10 cm plates and allowed to adhere overnight. The following day, the specimen was serum starved for 24 h. The specimen was then treated with or without tested agents at the dose of 2 μM. […] Cells were then harvested after 30 min and analyzed by Western blot.

## COc1cc(OC)cc(-c2nnc(SCC(=O)O[C@H](CC=C(C)C)C3=CC(=O)c4c(O)ccc(O)c4C3=O)o2)c1 [PMM-172, (R)-1-(5,8-dihydroxy-1,4-dioxo-1,4-dihydronaphthalen-2-yl)-4-methylpent-3-en-1-yl 2-((5-(3,5-dimethoxyphenyl)-1,3,4-oxadiazol-2-yl)thio)acetate]
[1]
  PARP and caspase 3 cleavage: could induce PARP and caspase 3 cleavage
MDA-MB-231 cells; 4 μM
  percentage of cell apoptosis (early and late apoptotic cells): 16.81%
MDA-MB-231 cells; 8 μM
  percentage of cell apoptosis (early and late apoptotic cells): 62.74%
MDA-MB-231 cells; MDA-MB-231, Annexin V/PI
  induction of apoptosis: induced apparent apoptosis in MDA-MB-231 cells in dose- and time- dependent manners
[2]
  STAT3 luciferase activity: decreased the STAT3 luciferase activity in a dose-dependent manner
STAT5
  phosphorylation and expression of STAT5: inhibited neither the phosphorylation nor expression
[3]
  IL-6-induced STAT3 phosphorylation: suppressed IL-6-induced STAT3 phosphorylation
